Marks after values point to notes of the source that are not given here. Bridge positions count the residues as written; N and C are the ends. Square brackets hold non-standard residues; d marks the D form. Peptide text beside a SMILES is read from it. * marks the point of attachment. Palmitoyl = CCCCCCCCCCCCCCCC(=O)*; Dab = NCC[C@H](N)C(=O)O; Dap = NC[C@H](N)C(=O)O; AEEA = NCCOCCOCC(=O)O
Assays:
C57BL/6J mice = assay: Survival in LPS induced ALI model (FIG. 2B); assay type: in vivo; settings: LPS 20 mg/kg IT; 0.3 mg/kg (0.1 μmol/kg) IT every 24 hours, 3 doses, survival to 72 hours
Procedure: FIGS. 2A-2B: Single and repeat administration of cationic alkyl modified C-type Natriuretic Peptides increases probability of survival in LPS induced Sepsis and ALI animal models. FIG. 2A) Sepsis induction: Male C57BL/6J mice (n=10 per group; 3 groups) were injected IP with LPS (15 mg/kg) and treated with various test articles, including cationic alkyl modified CNPs (SEQ ID NO: 31 and 29; 0.3 mg/kg (0.1 μmol/kg) SC). The control group received LPS treatment without any test article. The test articles were administered immediately after LPS administration (marked with vertical dotted lines). Survival was monitored every 2 hours from 8-56 hours, after which the surviving mice were euthanized under isoflurane anesthesia. […] Survival was monitored every 8 hours for 72 hours, after which the surviving mice were euthanized under isoflurane anesthesia. […]
Animal care and treatment: Male C57BL/6J mice (6 weeks-old) were purchased from Kyudo (Saga, Japan) and maintained under a 12-hour light/12-hour dark cycle with free access to water and standard mouse diet (MF diet, Oriental Yeast Co., Ltd. Tokyo, Japan). […] Survival was monitored every 2 hours from 8-56 hours, after which the mice were euthanized under isoflurane anesthesia. […] Survival was monitored every 8 hours for 72 hours, after which the mice were euthanized under isoflurane anesthesia. […]

cGMP [1] = assay: Plasma cGMP after SC bolus of natriuretic peptides in CD-1 mice (pharmacodynamics, Table 3); assay type: in vivo; settings: SC bolus 1.0 mg/kg (≤0.45 μmol/kg), baseline 10 +/−8 pmol/ml, n = 3-5
Procedure, shortened: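 Peptides given SC in sterile water; retro-orbital blood at 2 and 6 h post-dose (two bleeds per mouse), K2EDTA plasma. Plasma cGMP by commercial immunoassay kit; ANP, BNP or CNP plasma levels by peptide-specific ELISA.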

[2] = mouse, in vivo, sc, 1 mg/kg
Procedure: FIGS. 1A-1B: PK/PD Profiles for single subcutaneous (SC) injection of native CNP (SEQ ID NO: 32), SEQ ID NO: 31, and SEQ ID NO: 29 at 1.0 mg/kg (0.45, 0.33, and 0.33 μmol/kg, respectively) in mice. Error bars represent standard error of the mean. FIG. 1A) Plasma CNP [mean (SEM); n=5] in CD-1 mice after subcutaneous administration of 1.0 mg/kg of native CNP (SEQ ID NO: 32), SEQ ID NO: 31, and SEQ ID NO: 29 (0.45, 0.33, and 0.33 μmol/kg, respectively) in buffer. […] Plasma CNP in CD-1 mice was measured by CNP ELISA kit from Phoenix Pharmaceuticals (EKE-012-03, Burlingame, CA).
The animals were kept in PharmaIN animal facility with controlled temperature (68-74° F.) and humidity (30-60%), and a 12-hour light/dark cycle. […] Lead buffer was used to formulate or dissolve all test articles on the day of administration. […] Biochemical analysis: For pharmacokinetic study, plasma aliquots were thawed at 4° C. then analyzed using a commercially available CNP ELISA kit from Phoenix Pharmaceuticals (cat #EKE-012-03), which detects the cyclic structure of CNP and all CNP derivatives with the same level of reactivity to the ELISA kit. […] For pharmacodynamic or bioactivity study of cGMP, plasma aliquots were thawed at 4° C. then analyzed using a commercially available cGMP kit from Abcam (ab133052, Waltham, MA).

cGMP [3] = assay: Plasma cGMP profile after single SC injection in CD-1 mice (FIG. 1B); assay type: in vivo; settings: 1.0 mg/kg SC, 0-24 hours
Procedure: The animals were kept in PharmaIN animal facility with controlled temperature (68-74° F.) and humidity (30-60%), and a 12-hour light/dark cycle. […] Lead buffer was used to formulate or dissolve all test articles on the day of administration. Blood sampling: Blood samples were collected via retro-orbital bleed at several timepoints (0, 0.5, 1, 2, 4, 6, 8, and 24 hours) and processed in K2EDTA tubes (2000× g; 15 min, 4° C. within 30 minutes after collection) to obtain plasma. Plasma samples were aliquoted and stored at −80° C. until analysis. Biochemical analysis: For pharmacokinetic study, plasma aliquots were thawed at 4° C. then analyzed using a commercially available CNP ELISA kit from Phoenix Pharmaceuticals (cat #EKE-012-03), which detects the cyclic structure of CNP and all CNP derivatives with the same level of reactivity to the ELISA kit. […] For pharmacodynamic or bioactivity study of cGMP, plasma aliquots were thawed at 4° C. then analyzed using a commercially available cGMP kit from Abcam (ab133052, Waltham, MA).

Compound	Survival (C57BL/6J mice)	Plasma concentration of cGMP, 2 hr (cGMP [1])	Plasma concentration of cGMP, 6 hr (cGMP [1])	Increase of baseline plasma CNP levels [2]	Plasma cGMP levels over time compared to native CNP (cGMP [3])
CCCCCCCCCCCCCCCC(=O)NCCOCCOCC(=O)NCCOCCOCC(=O)NCCOCCOCC(=O)N[C@@H](CCN)C(=O)N[C@@H](CCN)C(=O)NCC(=O)N[C@@H](CC(C)C)C(=O)N[C@@H](CO)C(=O)N[C@@H](CCCCN)C(=O)NCC(=O)N[C@H]1CSSC[C@@H](C(=O)O)NC(=O)CNC(=O)[C@H](CC(C)C)NC(=O)CNC(=O)[C@H](CO)NC(=O)[C@H](CCC(N)=O)NC(=O)[C@H](CO)NC(=O)CNC(=O)[C@H]([C@@H](C)CC)NC(=O)[C@H](CCCNC(=N)N)NC(=O)[C@H](CC(=O)O)NC(=O)[C@H](CC(C)C)NC(=O)[C@H](CCCCN)NC(=O)[C@H](CC(C)C)NC(=O)CNC(=O)[C@H](Cc2ccccc2)NC1=O [SEQ ID NO: 29] ({Palmitoyl-AEEA-AEEA-AEEA}-[Dab][Dab]GLSKGCFGLKLDRIGSQSGLGC-OH; disulfide 8-24; C-terminus assumed)	effective in improving survival	157.31* pmol/mL	65.65* pmol/mL	> 10 fold	sustained elevation of cGMP levels
CCCCCCCCCCCCCCCC(=O)NCCOCCOCC(=O)NCCOCCOCC(=O)NCCOCCOCC(=O)N[C@@H](CN)C(=O)N[C@@H](CN)C(=O)NCC(=O)N[C@@H](CC(C)C)C(=O)N[C@@H](CO)C(=O)N[C@@H](CCCCN)C(=O)NCC(=O)N[C@H]1CSSC[C@@H](C(=O)O)NC(=O)CNC(=O)[C@H](CC(C)C)NC(=O)CNC(=O)[C@H](CO)NC(=O)[C@H](CCC(N)=O)NC(=O)[C@H](CO)NC(=O)CNC(=O)[C@H]([C@@H](C)CC)NC(=O)[C@H](CCCNC(=N)N)NC(=O)[C@H](CC(=O)O)NC(=O)[C@H](CC(C)C)NC(=O)[C@H](CCCCN)NC(=O)[C@H](CC(C)C)NC(=O)CNC(=O)[C@H](Cc2ccccc2)NC1=O [SEQ ID NO: 31] ({Palmitoyl-AEEA-AEEA-AEEA}-[Dap][Dap]GLSKGCFGLKLDRIGSQSGLGC-OH; disulfide 8-24; C-terminus assumed)	effective in improving survival	98.34**** pmol/mL	53.62*** pmol/mL	over 5 fold	sustained elevation of cGMP levels

Reference: patent US20240325544A1, “CATIONIC LIPID FOR COVALENT MODIFICATION OF PEPTIDES” (PharmalN Corporation, priority 2023, published 2024)
